Source: patent US11603475B2, “Antifouling article” (I-Tech AB, priority 2017, dated 2023)

Experiments:
barnacle cyprid larva = conditions: barnacles; cited from earlier work
tube worms = conditions: in vivo; cited from earlier work
algal growth = conditions: in vivo; cited from earlier work
[1] = stirring
Method: This example investigated the solubility of SELEKTOPE® (I-Tech AB, Mölndal, Sweden) in 1,4-butandiol (Brenntag Nordic AB, Malmö, Sweden). Vials were prepared according to Table 1 and left with stirring.
Vial number 4 was prepared and left with stirring in a same way as vial numbers 1-3.

- dissolution in vial number 1 ([1]; 97 mg SELEKTOPE in 1.007 g 1,4-butandiol, after 24 hours): all SELEKTOPE® had dissolved
- dissolution in vial number 2 ([1]; 206 mg SELEKTOPE in 1.012 g 1,4-butandiol, 48 hours after preparation): all SELEKTOPE® material had dissolved
- dissolution in vial number 4 ([1]; 247 mg SELEKTOPE in 1.009 g 1,4-butandiol, 24 hours after preparation (same at 48 hours)): a few non-dissolved grains remaining
- dissolution in vial number 3 ([1]; 303 mg SELEKTOPE in 1.024 g 1,4-butandiol, after about 2 hours (same after 24 and 48 hours)): still a lot of non-dissolved SELEKTOPE®
SMILES: Cc1cccc(C(C)c2c[nH]cn2)c1C (racemic) [Medetomidine, (±)-4,5-[1-(2,3-dimethylphenyl)ethyl)-1H-imidazole]
- concentrations that impede larval settlement (barnacle cyprid larva): 1 to 10 nM
- effect on other hard fouling, such as tube worms (tube worms): shown effect
- effect on algal growth (algal growth): no effect on algal growth
